Data on 19 compounds can be found in PubChem BioAssay AID651670 (Sanford-Burnham Center for Chemical Genomics, 2012).

Broadly, the IC50 is the midpoint of a concentration-inhibition curve.

Molecules are shown by their SMILES. Activity calls are given as the source filed them.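 Rule for the calls: active = IC50 at or below 20 µM; inactive = the rest.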

The target in this experiment is Fatty acid synthase (Homo sapiens) (UniProt P49327). Description: FAS thioesterase domain inhibitors, SAR follow-up, biochemical, endpoint fluorescence intensity, analogs (AID 651670). The conditions noted are these: recombinant FAS-TE, OMFH fluorogenic substrate.
Sequence of Fatty acid synthase (Homo sapiens) (P49327 whole entry, looked up, the tested form may be a part): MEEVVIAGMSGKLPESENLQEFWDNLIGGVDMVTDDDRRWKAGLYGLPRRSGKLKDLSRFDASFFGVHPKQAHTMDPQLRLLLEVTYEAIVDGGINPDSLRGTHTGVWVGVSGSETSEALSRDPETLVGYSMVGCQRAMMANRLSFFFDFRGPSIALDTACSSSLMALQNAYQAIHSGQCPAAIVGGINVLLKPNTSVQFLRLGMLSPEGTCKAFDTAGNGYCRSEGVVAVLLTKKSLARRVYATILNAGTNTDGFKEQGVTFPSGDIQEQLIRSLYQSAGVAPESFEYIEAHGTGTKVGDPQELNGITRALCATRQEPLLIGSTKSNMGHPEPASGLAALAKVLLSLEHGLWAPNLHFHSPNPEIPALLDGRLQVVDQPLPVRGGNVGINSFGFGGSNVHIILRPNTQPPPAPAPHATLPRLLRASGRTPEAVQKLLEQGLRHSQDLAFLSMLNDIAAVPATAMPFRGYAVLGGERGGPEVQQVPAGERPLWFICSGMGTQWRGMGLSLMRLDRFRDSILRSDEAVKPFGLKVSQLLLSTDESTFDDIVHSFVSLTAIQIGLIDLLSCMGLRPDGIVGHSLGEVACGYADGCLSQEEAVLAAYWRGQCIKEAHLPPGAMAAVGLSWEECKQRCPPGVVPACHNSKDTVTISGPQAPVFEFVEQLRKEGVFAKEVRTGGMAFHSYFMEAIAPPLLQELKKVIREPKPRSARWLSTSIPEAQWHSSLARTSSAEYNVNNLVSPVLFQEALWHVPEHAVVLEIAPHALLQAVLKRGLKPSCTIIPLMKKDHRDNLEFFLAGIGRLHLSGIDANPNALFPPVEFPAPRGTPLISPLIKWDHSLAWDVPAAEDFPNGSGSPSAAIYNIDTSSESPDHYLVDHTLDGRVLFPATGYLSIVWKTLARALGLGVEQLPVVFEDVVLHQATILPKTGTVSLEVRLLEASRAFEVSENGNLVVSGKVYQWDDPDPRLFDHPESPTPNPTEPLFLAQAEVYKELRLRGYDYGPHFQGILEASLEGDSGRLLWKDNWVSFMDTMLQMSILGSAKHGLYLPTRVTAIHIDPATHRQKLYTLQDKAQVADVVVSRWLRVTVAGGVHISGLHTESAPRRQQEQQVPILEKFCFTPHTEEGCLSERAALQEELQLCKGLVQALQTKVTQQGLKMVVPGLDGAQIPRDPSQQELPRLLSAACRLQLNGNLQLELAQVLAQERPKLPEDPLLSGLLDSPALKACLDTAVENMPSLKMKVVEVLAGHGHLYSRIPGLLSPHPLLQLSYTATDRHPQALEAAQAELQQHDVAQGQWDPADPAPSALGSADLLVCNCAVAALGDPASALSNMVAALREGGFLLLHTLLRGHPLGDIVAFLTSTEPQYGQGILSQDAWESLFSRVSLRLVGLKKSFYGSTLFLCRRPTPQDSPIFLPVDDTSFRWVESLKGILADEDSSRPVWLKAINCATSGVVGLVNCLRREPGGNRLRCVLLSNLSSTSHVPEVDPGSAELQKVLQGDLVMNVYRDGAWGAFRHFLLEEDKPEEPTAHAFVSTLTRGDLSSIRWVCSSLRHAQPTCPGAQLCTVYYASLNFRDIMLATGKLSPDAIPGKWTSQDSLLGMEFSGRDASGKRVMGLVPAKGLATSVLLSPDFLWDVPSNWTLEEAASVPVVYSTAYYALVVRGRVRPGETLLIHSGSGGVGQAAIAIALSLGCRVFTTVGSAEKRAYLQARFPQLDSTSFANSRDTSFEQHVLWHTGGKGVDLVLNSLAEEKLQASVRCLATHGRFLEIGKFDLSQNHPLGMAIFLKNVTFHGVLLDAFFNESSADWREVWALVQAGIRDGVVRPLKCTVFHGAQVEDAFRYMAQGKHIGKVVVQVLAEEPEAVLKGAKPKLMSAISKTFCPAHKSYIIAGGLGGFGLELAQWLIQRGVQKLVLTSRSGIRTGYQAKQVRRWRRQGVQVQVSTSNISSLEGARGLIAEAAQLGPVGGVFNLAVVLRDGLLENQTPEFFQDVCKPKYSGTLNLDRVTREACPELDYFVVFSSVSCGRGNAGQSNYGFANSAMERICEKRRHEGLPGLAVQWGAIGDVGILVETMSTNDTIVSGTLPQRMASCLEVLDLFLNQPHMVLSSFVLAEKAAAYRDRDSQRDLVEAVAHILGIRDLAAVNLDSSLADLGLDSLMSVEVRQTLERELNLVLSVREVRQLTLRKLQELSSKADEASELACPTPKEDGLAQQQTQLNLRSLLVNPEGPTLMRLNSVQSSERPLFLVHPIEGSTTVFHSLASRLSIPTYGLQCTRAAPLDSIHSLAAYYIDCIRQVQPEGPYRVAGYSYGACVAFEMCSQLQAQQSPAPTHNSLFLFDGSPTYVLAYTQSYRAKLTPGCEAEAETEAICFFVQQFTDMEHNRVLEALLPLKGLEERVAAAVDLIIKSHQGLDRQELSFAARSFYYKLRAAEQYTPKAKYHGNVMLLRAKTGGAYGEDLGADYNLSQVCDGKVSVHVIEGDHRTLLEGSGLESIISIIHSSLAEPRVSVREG
With `CCCCn1c(SCC(=O)Nc2ncc(C(F)(F)F)cc2Cl)nnc1-c1ccc(OC)cc1`, the IC50 was 0.67 µM.
Take `Cn1c(SCC(=O)Nc2ccccc2)nnc1-c1ccc(Cl)cc1`: the IC50 is > 80 µM (inactive).
Next, `COc1ccc(CN(C)C(=O)Cc2ccc(S(=O)(=O)N3CCOCC3)s2)cc1OC`: > 80 µM (inactive); `Cn1c(SCC(=O)Nc2ncc(C(F)(F)F)cc2Cl)nnc1-c1ccc(F)cc1`: 8.27 µM; `O=S(=O)(c1ccc(-c2csc(N3CCCC3)n2)cc1)N1CCOCC1`: 0.948 µM.
Consider `O=S(=O)(c1ccc(-c2csc(Cc3ccccc3)n2)cc1)N1CCOCC1`, for which the IC50 was 0.664 µM.
Consider `Cn1c(SCC(=O)Nc2cccc(Cl)c2)nnc1-c1ccc(Cl)cc1`, for which the IC50 was > 80 µM (inactive).
As to `CCn1c(SCC(=O)Nc2ncc(C(F)(F)F)cc2Cl)nnc1-c1ccncc1`, the IC50 entry was “inactive”.
Consider `Cc1ccccc1NC(=O)CSc1nnc(-c2ccc(Cl)cc2)n1C`, for which the IC50 was > 80 µM (inactive).
Consider `Cc1ccc(NC(=O)Cc2nc(-c3ccc(S(=O)(=O)N4CCOCC4)cc3)cs2)cc1`, for which the IC50 was > 80 µM (inactive).
On to `CCc1ccc(CN(C)C(=O)Cc2ccc(S(=O)(=O)N3CCCC3)s2)cc1`, for which the IC50 was 12.9 µM.
In the case of `CC(=O)Nc1nc(-c2ccc(S(=O)(=O)N3CCOCC3)cc2)cs1`, the IC50 was 15.3 µM.
As to `Cn1c(Cc2ccccc2)nnc1SCC(=O)Nc1ncc(C(F)(F)F)cc1Cl`, the IC50 result is “inactive”.
Turning to `O=C(Nc1nc(-c2ccc(S(=O)(=O)N3CCOCC3)cc2)cs1)c1ccco1`, the IC50 result is “inactive”.
With `Cc1nnc(SCC(=O)Nc2ncc(C(F)(F)F)cc2Cl)n1-c1ccccc1`, the IC50 is > 80 µM (inactive).
Consider `CN(Cc1cccc(F)c1)C(=O)Cc1ccc(S(=O)(=O)N2CCOCC2)s1`, for which the IC50 was > 80 µM (inactive).
With `O=C(Nc1nc(-c2ccc(S(=O)(=O)N3CCOCC3)cc2)cs1)c1cccs1`, the IC50 result is “inactive”.
For the compound `COc1ccc(-c2nnc(SCC(=O)Nc3ncc(C(F)(F)F)cc3Cl)n2C)cc1`, the concentration for half-maximal inhibition (IC50) was 1.96 µM.
Turning to `CCCn1c(SCC(=O)Nc2ncc(C(F)(F)F)cc2Cl)nnc1-c1ccncc1`, the IC50 result is “inactive”.
